Read-outs that look alike come from different tables or passages of the source.
Key:
[1] = tested on: A549 cells; assay: A549 Cell Proliferation Assay (MTT); format: cell-based; details: Homo sapiens
[2] = Pharmacokinetics, intravenous and oral dose; design: species or system male CD-1 mice; details: in vivo; for Cmax: plasma; for half-life: read-out: Half-life (t1/2; h) (converted)
Experimental: Plasma levels of the test compounds were determined by LC-MS/MS. Data was analyzed by non compartmental pharmacokinetic model by using WinNonlin.

[3] = tested on: caspase 3,7 activity in A431 cells; assay: cells
Excerpt: As described below, the capsase 3,7 assay uses the Promega Caspase-Glo 3/7 assay kit (cat no. G8092).
The Caspase-Glo® 3/7 Assay is a luminescent assay that measures caspase-3 and −7 activities in purified enzyme preparations or cultures of adherent or suspension cells. The assay provides a proluminescent caspase-3/7 substrate, which contains the tetrapeptide sequence, DEVD. This substrate is cleaved to release aminoluciferin, a substrate of luciferase used in the production of light. The Caspase-Glo® 3/7 Reagent has been optimized for caspase activity, luciferase activity and cell lysis. The addition of the single Caspase-Glo® 3/7 Reagent in an “add-mix-measure” format results in cell lysis, followed by caspase cleavage of the substrate and generation of a “glow-type” luminescent signal. The Caspase-Glo® 3/7 Assay is designed for use with multiwell plate formats, making it ideal for automated high-throughput screening of caspase activity or apoptosis.
Staurosporine was used as a positive control.
For the capsase 3,7 assay, cells were incubated for 5.5 hrs at 37° C., 5% CO2. The plate was removed from the incubator and equilibrated to room temperature. After 30 min, 25 μl Caspase 3/7 detection reagent (Promega Caspase-Glo 3/7 assay kit, cat no. G8092) was added to each well. The plate was covered with tin foil and shaken on a plate shaker at speed 4 for 3 min. The plate was then incubated for an additional 60 min at room temperature. Luminescence was detected using the PolarStar plate reader.
All statistical analyses were done using GraphPad Prism.
The assay was stopped after 6 hrs and the presence of caspase was measured using the Promega Caspase-Glo® 3/7 Assay.

[4] = target: T1, EGFR (Homo sapiens, UniProt P00533); assay: EGFR in-cell Western (ICW) screening protocol; format: cell-based; design: unit not given here; details: initial screen
T1 construct: endogenous in cells; host or cells: A431 cells (ATCC CRL-1555)
T1 sequence (P00533 25-1210): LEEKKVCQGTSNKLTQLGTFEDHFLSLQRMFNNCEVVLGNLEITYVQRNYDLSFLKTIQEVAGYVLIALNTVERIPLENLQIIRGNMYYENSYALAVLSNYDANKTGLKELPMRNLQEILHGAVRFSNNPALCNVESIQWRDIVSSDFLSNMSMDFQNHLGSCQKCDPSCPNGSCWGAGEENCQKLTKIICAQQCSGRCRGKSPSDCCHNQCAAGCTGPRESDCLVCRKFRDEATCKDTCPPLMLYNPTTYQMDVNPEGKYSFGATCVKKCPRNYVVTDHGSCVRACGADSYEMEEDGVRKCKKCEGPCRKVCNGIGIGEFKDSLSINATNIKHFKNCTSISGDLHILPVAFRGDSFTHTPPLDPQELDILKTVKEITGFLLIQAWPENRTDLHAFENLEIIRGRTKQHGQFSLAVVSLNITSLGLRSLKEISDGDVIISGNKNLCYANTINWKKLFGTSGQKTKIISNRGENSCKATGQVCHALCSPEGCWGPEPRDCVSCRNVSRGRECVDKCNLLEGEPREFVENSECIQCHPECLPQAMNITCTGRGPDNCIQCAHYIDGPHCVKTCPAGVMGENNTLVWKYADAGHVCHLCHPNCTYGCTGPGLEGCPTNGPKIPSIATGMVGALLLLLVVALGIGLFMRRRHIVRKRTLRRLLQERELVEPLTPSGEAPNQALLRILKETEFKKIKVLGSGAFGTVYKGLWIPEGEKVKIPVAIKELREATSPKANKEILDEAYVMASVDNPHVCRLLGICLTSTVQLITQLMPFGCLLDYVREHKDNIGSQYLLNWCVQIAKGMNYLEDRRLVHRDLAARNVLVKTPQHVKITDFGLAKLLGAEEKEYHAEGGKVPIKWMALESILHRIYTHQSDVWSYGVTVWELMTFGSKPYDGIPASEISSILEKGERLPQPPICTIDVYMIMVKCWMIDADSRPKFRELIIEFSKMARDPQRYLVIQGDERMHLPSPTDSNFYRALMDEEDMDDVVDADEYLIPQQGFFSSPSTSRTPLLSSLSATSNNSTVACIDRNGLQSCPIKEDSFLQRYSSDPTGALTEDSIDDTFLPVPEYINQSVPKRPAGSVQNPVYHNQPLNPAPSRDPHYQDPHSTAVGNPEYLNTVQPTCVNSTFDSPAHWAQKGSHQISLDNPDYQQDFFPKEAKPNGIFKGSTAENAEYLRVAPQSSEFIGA
Outline: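 Serum-starved cells treated with compound 4 h at 37 °C, then stimulated with EGF (20 or 0 ng/ml solution added) in its continued presence. In-cell Western on fixed cells: phospho-EGFR (800 channel) normalised to total EGFR (700 channel), % inhibition calculated against EGF-stimulated and unstimulated no-compound wells.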

[5] = A549, 72 h, read-out: IC50 Value (μM) A549 Cells
[6] = mouse, iv, 1 mg/kg, male CD-1 mice
[7] = mouse, po, 5 mg/kg, male CD-1 mice
[8] = mouse, po, 5 mg/kg, male CD-1 mice, read-out: Tmax
[9] = Homo sapiens, A-431, read-out: Total Apoptosis (increase in caspase 3,7 activity as percentage of the maximal response)

ICW Screen [4] | SMILES | IC50 [1, 5] [µM] | IC50 ([1]; A549, read-out: IC50, cell proliferation in A549 or H1975 cells) [µM] | AUC ([2]; male, CD-1, mouse, iv, 1 mg/kg) [ng·h/mL] | Tmax ([2]; male, CD-1, mouse, iv, 1 mg/kg) [min] | AUC ([2]; male, CD-1, mouse, po, 5 mg/kg) [ng·h/mL] | Vd [2, 6] [L/kg] | clearance [2, 6] [mL/min/kg] | Cmax [2, 6] [ng/mL] | half-life [2, 6] [min] | Cmax [2, 7] [ng/mL] | Tmax [2, 8] [min] | Emax at 8 µM [3, 9] [%] | Emax at 16 µM [3, 9] [%] | effect on Tarceva to increase caspase 3,7 activity ([3]; Tarceva plus compound, A431 cells, 6 hrs) | Ability to Synergize with Tarceva ([3]; caspase 3,7 activity, A431 cells)
– | Cc1cc(Cl)cnc1NC(c1ccc(Cl)cc1Cl)c1ccc2cccnc2c1O (centres unmarked) [AD4-13130] | 0.12 | ≤ 0.1 | 609 | 4.98 | 278 | 3.24 | 27.3 | 669 ± 45 | 112 | 131 ± 51 | 60 | – | – | – | –
– | Cc1c(Cl)cnc(NC(c2cccc(Cl)c2Cl)c2ccc3cccnc3c2O)c1F (centres unmarked) [AD4-13192] | 0.15 | – | 1390 | 4.98 | 115 | 0.56 | 12 | 3550 ± 571 | 88.2 | 59 ± 21 | 30 | 29 | 32 | synergistic (greater-than-additive) effect | +++ (0.3-0.7 Synergism)
23.17 | Oc1c(C(Nc2ccccn2)c2ccc(C(F)(F)F)cc2)ccc2cccnc12 (centres unmarked) [compound 10460] | – | – | – | – | – | – | – | – | – | – | – | – | – | – | –

Source: US9073858B2, “Methods of targeted drug development” (priority 2010, dated 2015)
